Read-outs that look alike come from different tables or passages of the source. Bridges are numbered along the chain shown (N, C = ends). Primed or numbered codes have the meaning given here. Where no end group is shown, it is not given here. The star is where a group is joined. Biotin = O=C1N[C@H]2[C@H](CS[C@H]2CCCCC(=O)*)N1; Fmoc = O=C(OCC1c2ccccc2-c2ccccc21)*; PEG4′ = not defined here
Tests used:
[1] = biological target: IgG; experiment: Affinity analysis of IgG-binding peptides by surface plasmon resonance (BIAcore T200), IgG immobilized on sensor chip; settings: for ka / kd: peptide 10 nM to 2 μM, HBS-EP buffer pH 7.0
Experimental: Affinity analysis of the purified IgG-binding peptide was carried out according to the following method. Equal amounts of 0.4 M 1-ethyl-3-(3-dimethylaminopropyl)-carbodiimide (EDC) and 0.1 M sulfo-N-hydroxysuccinimide (sulfo-NHS) were mixed and injected onto a CMS sensor chip, which was set in BIAcoreT200 (GE healthcare), at a flow rate of […] for 7 min to activate the sensor chip, and then the IgG was immobilized on the sensor chip under conditions of pH 4.0 (10 mM Na acetate) so as to give an immobilized amount of 4000 to 5000 in RU value. The binding reaction was monitored by injecting the peptide in a concentration from 10 nM to 2 μM at a flow rate of […] for 180 sec while using an HBS-EP buffer (0.01 M HEPES, 0.15 M NaCl, 0.005% TWEEN 20, 3 mM EDTA, pH 7.0), and then the dissociation reaction was measured by washing with the buffer for 600 sec. Binding parameters were analyzed using BlAevalution T100 software.

[2] = test system: human serum-derived γ-globulin; experiment: Evaluation of alkali resistance: DBC after repeated 0.1 M sodium hydroxide treatment; assay type: physicochemical; settings: five 0.1 M sodium hydroxide treatments
Experimental: FIG. 4 illustrates measurement results of DBC of an IgG-binding peptide cross-linked via a linker, prepared in Example 2, and an IgG-binding peptide cross-linked by disulfide, prepared in Comparative Example 1, both of which were treated with sodium hydroxide.
To a 1-mg peptide-immobilized 1-mL column prepared by the same method as in Example 3, 5 mL of 0.1 M sodium hydroxide solution was fed. The column was then washed with the adsorption solution and DBC was measured at a flow rate of 1 mL/min as in Example 5. Subsequently, a cycle of the treatment with the sodium hydroxide solution and the DBC measurement was repeated five times to evaluate the alkali resistance. The variation rate of DBC was determined based on the DBC before the sodium hydroxide treatment as 100%.
As Comparative Example 1, a column with 1 mg of a peptide cross-linked by a disulfide bond immobilized thereon was prepared, and the alkali resistance evaluation was carried out as in Example 5.

[3] = test system: human-derived serum γ-globulin; experiment: Competitive elution with peptide from peptide-immobilized column, SDS-PAGE; settings: 2.5 mL of 0.4 mg/mL peptide solution; bands around 25 kDa and 50 kDa on SDS-PAGE
Experimental: FIG. 2 illustrates results of SDS-PAGE of fractions fractionated in 0.5 mL that are obtained by eluting proteins with citric acid or the IgG-binding peptide from the column with immobilized peptide prepared in Example 3. The proteins were detected by CBB staining.
To the column prepared by the same method as in Example 3, 1 mg of human-derived serum γ-globulin was fed to adsorb the globulin thereto. The column was washed with the adsorption solution, and then 2.5 mL of a 0.4 mg/mL solution of Peptide a prepared in Example 2 dissolved in the adsorption solution was fed to the column. Each fraction fractionated in 0.5 mL was subjected to SDS-PAGE under reductive conditions in accordance with an ordinary method. Proteins were detected by CBB staining. For comparison, similar operations were carried out also for citric acid elution.

[4] = test system: human serum-derived γ-globulin; experiment: Separation of human serum-derived γ-globulin on peptide-immobilized column, acidic elution; settings: 1 mg peptide on NHS-activated 1-mL column; elution 20 mM citric acid pH 2.5
Experimental: FIG. 1 illustrates a result of a case where human serum-derived γ-globulin (Wako) was adsorbed to a column with immobilized peptide prepared in Example 3 and eluted with an acidic elution solution (20 mM citric acid, pH 2.5). The horizontal axis represents the volume of the elution liquid and the vertical axis represents the […] concentration measured by absorbance at 280 nm.
A dichloroacetone-cross-linked peptide was immobilized to an NHS-activated prepacked column (GE Healthcare) to carry out various evaluations to assess whether the dichloroacetone-cross-linked peptide can be used as an affinity ligand for human antibody purification.
The peptide-immobilized column was prepared by the following procedures. A syringe was used to feed a solution.
To a 1-mL capacity NHS-activated prepacked column, 5 mL of 1 mM hydrochloric acid was fed to remove an isopropanol solution in the column. […]
The prepared peptide-immobilized column was connected to a liquid chromatography system AKTAexplore (GE Healthcare) and equilibrated with the adsorption solution. […] The elution of proteins from the column was detected by absorbance at 280 nm. […]

[5] = SPR, 1:1 binding model, read-out: KD (nM) 1:1 binding
[6] = SPR, equilibrium value, read-out: KD (nM) Equilibrium value

| Substance | Kd [1, 5] | Kd [1, 6] | ka ([1]; SPR) | kd ([1]; SPR) | Kd ([1]; measured as in Example 1, read-out: Kd (affinity for IgG)) | alkali resistance (change in DBC by sodium hydroxide treatments) [2] | elution of adsorbed γ-globulin by peptide solution [3] | usability as ligand for an affinity column (adsorption and acid elution of γ-globulin) [4] |
| --- | --- | --- | --- | --- | --- | --- | --- | --- |
| DCAYH(Xaa1)GELVWCT (SEQ ID NO:1, wherein Xaa1 was arginine and the C-terminus was amidated) ({Biotin-PEG4′}-DCAYHRGELVWCT-NH2; disulfide 2-12 (inferred)) [SEQ ID NO: 1, wherein Xaa1 is R] | 54 nM | 64.5 nM | 4.57E+05 | 0.0248 | – | – | – | – |
| Fmoc-HN-PEG4-GPDCAYH(Xaa1)GELVWCTFH (SEQ ID NO:2, wherein Xaa1 was arginine and the C-terminus was amidated) ({Fmoc-PEG4′}-GPDCAYHRGELVWCTFH-NH2; cysteine pairing not given here) [Peptide b] | – | – | – | – | 1000 nM | – | – | – |
| GPDCAYH(Xaa1)GELVWCTFH (SEQ ID NO:2, wherein Xaa1 was acetylated lysine, and the C-terminus was amidated) (GPDCAYHXGELVWCTFH; Xaa1=acetyl-lysine; C-terminal amide; (8)..(8) Xaa is arginine, lysine, leucine, asparagine, or derivative thereof) [SEQ ID NO: 2, wherein Xaa1 is K (Acetyl)] | 2700 nM | 2800 nM | 4.4E+05 | 0.12 | – | – | – | – |
| GPDCAYH(Xaa1)GELVWCTFH (SEQ ID NO:2, wherein Xaa1 was arginine and the C-terminus was amidated) (GPDCAYHRGELVWCTFH-NH2; not fully specified (N-terminus, bridges); printed as GPDCAYH(Xaa1)GELVWCTFH; cysteine pairing not given here) [SEQ ID NO: 2, wherein Xaa1 is R] | 9.1 nM | 10 nM | 1.57E+06 | 0.0144 | – | – | – | – |
| GPDCAYH(Xaa1)GELVWCTFH (SEQ ID NO:2, wherein Xaa1 was arginine and the C-terminus was amidated) ({Biotin-PEG4′}-GPDCAYHRGELVWCTFH-NH2; bridge 4-14; not fully specified (bridges); printed as GPDCAYH(Xaa1)GELVWCTFH) [Peptide a, N-terminally PEG4-modified, C-terminally amidated; cysteine sulfide groups connected via linker from 1,3-dichloro-2-propanone (linker drawing 11)] | – | – | – | – | – | no decrease in DBC | can be used as a means for elution | can be used as a ligand for an affinity column |
| GPDCAYH(Xaa1)GELVWCTFH (SEQ ID NO:2, wherein Xaa1 was leucine, and the C-terminus was amidated) ({Biotin-PEG4′}-GPDCAYHLGELVWCTFH-NH2; disulfide 4-14 (inferred)) [SEQ ID NO: 2, wherein Xaa1 is L] | 8.1 nM | – | 1.7E+05 | 0.014 | – | – | – | – |
| GPDCAYH(Xaa1)GELVWCTFH (SEQ ID NO:2, wherein Xaa1 was lysine, and the C-terminus was amidated) (GPDCAYHXGELVWCTFH; Xaa1=K; C-terminal amide; (8)..(8) Xaa is arginine, lysine, leucine, asparagine, or derivative thereof) [SEQ ID NO: 2, wherein Xaa1 is K] | 156 nM | 131 nM | 1.25E+06 | 0.195 | – | – | – | – |
| GPRCAYH(Xaa1)GELVWCSFH (SEQ ID NO:4, wherein Xaa1 was arginine and the C-terminus was amidated) (GPRCAYHRGELVWCSFH-NH2; not fully specified (N-terminus, bridges); cysteine pairing not given here) [SEQ ID NO: 4, wherein Xaa1 is R] | 42 nM | 56 nM | 8.40E+05 | 0.0353 | – | – | – | – |

— patent US11186613B2, “Solid-phase support comprising IgG-binding peptide, and method for separating IgG” (Kagoshima University, priority 2016, dated 2021)
